Source: US20240408088A1, “PYRAZOLE DERIVATIVE, AND PREPARATION METHOD THEREFOR AND USE THEREOF IN MEDICINE” (Abbisko Therapeutics Co., Ltd., priority 2021, published 2024)
Where two headings read alike, the source gives them in different places.

Key:
[1] = Pharmacokinetic assay in mice, single oral administration; type: in vivo; conditions: male, mouse, ICR mice, 10 mg/kg, plasma
Method: The purpose of this trial is to study the pharmacokinetic behavior of some compounds of the present invention, and the administration method is: Single oral administration (PO) to ICR mice:
ICR mice male N=3 original source: Shanghai Sippr-Bk Lab Animal Co., Ltd.
The compounds were weighed and dissolved in 20% PG+10% Solutol HS15+70% pH 3 citrate buffer, respectively, shaken well and sonicated to prepare colorless clear solutions or suspensions. Nine mice were administered orally at a dose of 10 mg/kg after an overnight fast.
About 90 μL of blood was collected via the submandibular vein per time point, heparin sodium anticoagulant was added, the sample was placed on ice after collection, and plasma was centrifuged within 1 hour (centrifugation conditions: 8,000 rpm, 6 minutes, 2-8° C.). The blood collection time points were 0, 0.25, 0.5, 1, 2, 4, 6, 8 and 24 h. The samples were stored in a refrigerator at −20° C.
The plasma sample was 40 μL, 160 μL of ice-cold acetonitrile containing internal standard was added, vortexed for 3 minutes, and centrifuged at 11,000 rpm for 5 minutes. 100 μL of the supernatant was taken and added to 100 μL of water, 5 μL of the sample was taken and injected into LC/MS/MS for analysis (see the table below for the results).
PK Results for Single Oral Administration (PO) of 10 mg/kg of Compounds to Mice

[2] = Liver microsomal stability experiment; type: in vitro ADME; conditions: pH 7.4; human liver microsomes, NADPH, 37° C., 0-45 min; read-out: Human Liver Microsome Stability Half-Life T1/2
Method: Buffer solution A: 1.0 L of 0.1 M potassium dihydrogen phosphate buffer solution (containing 1.0 mM EDTA);
Buffer solution B: 1.0 L of 0.1 M dipotassium phosphate buffer solution (containing 1.0 mM EDTA);
Buffer solution C: Buffer solution A was added to 700 mL of buffer solution B. The addition was stopped when pH reached 7.4.
The selected compounds of the examples and reference standards were dissolved in DMSO to prepare a stock solution of 10 mM.
• 500 μM solution: 10 μL of 10 mM stock solution was added to 190 μL of ACN; • 1.5 μM dosing solution (dissolved in liver microsome solution, human liver microsomes were purchased from Xenotech): 18.75 μL of 20 mg/mL liver microsomes was added to 479.75 μL of buffer solution C, then 1.5 μL of 500 μM solution was added and mixed well with gentle shaking.
NADPH was weighted, then an appropriate amount of buffer solution C was added to prepare a 6 mM of NADPH solution.
• 1. 30 μL of 1.5 μM dosing solution was added to the wells set to different time points (0 min, 5 min, 15 min, 30 min and 45 min) on a 96-well plate. 2 replicates were made. • 2. Preparation of the 0-min sample: 135 μL of ACN (containing internal standard) was first added to the 0-min well, and 15 μL of 6 mM NADPH solution was added. • 3. A 96-well plate containing 1.5 μM of dosing solution and NADPH solution were pre-warmed in a 37° C. water bath for 5 minutes. • 4. Pre-warmed 15 μL of 6 mM NADPH solution was added to the wells set to 5 min, 15 min, 30 min and 45 min, the reaction was started and the timing was started. • 5. […] The solution was vortexed for 10 minutes, and the sample was centrifuged on a centrifuge at 5594×g for 15 minutes. • 6. 50 μL of supernatant was taken from the centrifuged sample, transferred to a 96-well sample plate that has been added with 50 μL of water, mixed, and finally sent to LC-MS/MS for analysis. The half-life was calculated based on the test results.

[3] = test system: HCT 116 MTAP knockout cells; experiment: Human colon cancer HCT116 cell proliferation inhibition test (MTAP knockout cells, CellTiter-Glo, 6 days); type: cell-based
Method: (§1) • 1. HCT 116 MTAP knockout and MTAP wild-type cells were plated in 96-well flat bottom 5 plates, and cultured overnight with McCoy's 5A medium containing […]+1% penicillin-streptomycin at 37° C. and 5% CO2. • 2. On the next day, the compound was dissolved with DMSO, diluted with DMSO and medium successively and transferred to the cell plate. The final concentration of the compound was 10 μM, the compound was diluted 4 times, with 9 concentration gradients, and DMSO control was added. • 3. Cells that have not been treated with the compound were removed. CellTiter-Glo Luminescent Cell Viability Assay (Promega) was used to detect cell viability, the operation was performed with reference to the package insert of the kit, and then the cell plate was placed on EnVision Multilabel Reader to detect the cold light signal. • 4. Meanwhile, the cell plate treated with the compound was cultured at 37° C. and 5% CO2 for 6 consecutive days. • 5. Then, CellTiter-Glo was also used to detect cell viability. • 6. Finally, the four-parameter dose-response curve module of GraphPad Prism v 9.2.0 software was used to plot the dose-response curve and calculate the IC50 for proliferation inhibition (unit: nM).

[4] = test system: HCT 116 MTAP wild-type cells; experiment: Human colon cancer HCT116 cell proliferation inhibition test (MTAP wild-type cells, CellTiter-Glo, 6 days); type: cell-based; conditions: HCT-116, 144 h
Method: as §1

AUC(0-t) [1] [ng·h/mL] | Cmax [1] [ng/mL] | half-life [1] [h] | half-life at 1 µM [2] [h] | IC50 ([3]; Homo sapiens, HCT-116, 144 h) [nM] | IC50 [4] [nM] | IC50 [3] [nM] | SMILES
2900 | 973 | 5.1 | 2.05 | 70 |  |  | Cn1ncc(-c2cc(C#N)c3c(=O)[nH]nc(CN)c3c2)c1-c1c(F)c(Cl)cc(OC2CC2)c1C#N [Example 6, 1-(aminomethyl)-7-(5-(3-chloro-6-cyano-5-cyclopropoxy-2-fluorophenyl)-1-methyl-1H-pyrazol-4-yl)-4-oxo-3,4-dihydrophthalazine-5-carbonitrile]
2530 | 1750 | 1.2 | 3.37 |  | 2360 | 29 | Cn1ncc(-c2cc(C#N)c3c(=O)[nH]nc(CN)c3c2)c1-c1c(F)cc2ccccc2c1C#N [Example 1, 1-(aminomethyl)-7-(5-(1-cyano-3-fluoronaphthalen-2-yl)-1-methyl-1H-pyrazol-4-yl)-4-oxo-3,4-dihydrophthalazine-5-carbonitrile]
973 | 266 | 1.3 | 0.333 | 53 | 1610 |  | Cn1ncc(-c2ccc3c(=O)[nH]nc(CN)c3c2)c1-c1c(F)c(Cl)cc(OC2CC2)c1C#N [MRTX-1979, reference compound]
2980 | 810 | 5 | 0.45 | 17 | 761 |  | Cn1ncc(-c2ccc3c(=O)[nH]nc(CN)c3c2)c1-c1c(F)c(Cl)cc(N2CCCC2)c1C#N [Example 28, 2-(4-(4-(aminomethyl)-1-oxo-1,2-dihydrophthalazin-6-yl)-1-methyl-1H-pyrazol-5-yl)-4-chloro-3-fluoro-6-(pyrrolidin-1-yl)benzonitrile]
 |  |  |  | 34 | 2490 |  | COC1CCN(c2cc(OC3CC3)c(C#N)c(-c3c(-c4ccc5c(=O)[nH]nc(CN)c5c4)cnn3C)c2F)C1 (stereo not drawn) [Example 26, 2-(4-(4-(aminomethyl)-1-oxo-1,2-dihydrophthalazin-6-yl)-1-methyl-1H-pyrazol-5-yl)-6-cyclopropoxy-3-fluoro-4-(3-methoxypyrrolidin-1-yl)benzonitrile]
 |  |  |  | 80 | 3260 |  | Cn1ncc(-c2ccc3c(=O)[nH]nc(CN)c3c2)c1-c1c(F)c(Cl)cc(N2CCC(F)(F)C2)c1C#N [Example 19, 2-(4-(4-(aminomethyl)-1-oxo-1,2-dihydrophthalazin-6-yl)-1-methyl-1H-pyrazol-5-yl)-4-chloro-6-(3,3-difluoropyrrolidin-1-yl)-3-fluorobenzonitrile]
2230 | 844 | 6.9 | 0.633 | 58 |  |  | Cn1ncc(-c2cc(C#N)c3c(=O)[nH]nc(CN)c3c2)c1-c1c(F)c(Cl)cc(N2CCCC2)c1C#N [Example 9, 1-(aminomethyl)-7-(5-(3-chloro-6-cyano-2-fluoro-5-(pyrrolidin-1-yl)phenyl)-1-methyl-1H-pyrazol-4-yl)-4-oxo-3,4-dihydrophthalazine-5-carbonitrile]
2710 | 576 | 3.2 | 0.867 | 18 |  |  | Cn1ncc(-c2cc(C3CC3)c3c(=O)[nH]nc(CN)c3c2)c1-c1c(F)c(Cl)cc(OC2CC2)c1C#N [Example 8, 2-(4-(4-(aminomethyl)-8-cyclopropyl-1-oxo-1,2-dihydrophthalazin-6-yl)-1-methyl-1H-pyrazol-5-yl)-4-chloro-6-cyclopropoxy-3-fluorobenzonitrile]
 |  |  |  | 44 | 2660 |  | Cn1ncc(-c2ccc3c(=O)[nH]nc(CN)c3c2)c1-c1c(F)c(Cl)cc(N2CC(C(F)F)C2)c1C#N [Example 30, 2-(4-(4-(aminomethyl)-1-oxo-1,2-dihydrophthalazin-6-yl)-1-methyl-1H-pyrazol-5-yl)-4-chloro-6-(3-(difluoromethyl)azetidin-1-yl)-3-fluorobenzonitrile]
 |  |  |  | 20 | 1150 |  | Cn1ncc(-c2ccc3c(=O)[nH]nc(CN)c3c2)c1-c1c(F)c(Cl)cc(N2CC3(C2)CC3(F)F)c1C#N [Example 29, 2-(4-(4-(aminomethyl)-1-oxo-1,2-dihydrophthalazin-6-yl)-1-methyl-1H-pyrazol-5-yl)-4-chloro-6-(1,1-difluoro-5-azaspiro[2.3]hexan-5-yl)-3-fluorobenzonitrile]
 |  |  |  | 123 | 5600 |  | Cn1ncc(-c2ccc3c(=O)[nH]nc(CN)c3c2)c1-c1c(F)c(Cl)cc(N2CC(C)(F)C2)c1C#N [Example 18, 2-(4-(4-(aminomethyl)-1-oxo-1,2-dihydrophthalazin-6-yl)-1-methyl-1H-pyrazol-5-yl)-4-chloro-3-fluoro-6-(3-fluoro-3-methylazetidin-1-yl)benzonitrile]
1440 | 378 | 4 | 0.717 | 9 |  |  | C#Cc1cc(-c2cnn(C)c2-c2c(F)cc3ccccc3c2C#N)cc2c(CN)n[nH]c(=O)c12 [Example 2, 2-(4-(4-(aminomethyl)-8-ethynyl-1-oxo-1,2-dihydrophthalazin-6-yl)-1-methyl-1H-pyrazol-5-yl)-3-fluoro-1-naphthalenenitrile]
